Results from US20060264460A1 (Wyeth, priority 2005, published 2006).

molecular target: T1, human Cot/Tpl2 kinase (Homo sapiens, UniProt P41279); assay: Tpl2/Cot kinase assay: GST-MEK1 phosphorylation detected by ELISA (DELFIA Eu); assay type: biochemical; conditions: 0.4 nM Tpl2, 35 nM GST-MEK1, 50 uM ATP, 1 h at 30° C.
T1 construct: human Cot/Tpl2 kinase construct encoding residues 30-398; 6His (N); made in house; host or cells: Sf9 insect cells, baculovirus system (BD Biosciences)
Summary of the method: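 Substrate phosphorylation (GST-MEK1 Ser217/221) quantified by DELFIA europium ELISA, yielding IC50 values. Reaction: 1 h at 30° C, pH 7.2 MOPS buffer, 50 uM ATP, 35 nM GST-MEK1, 0.4 nM monomeric His-Tpl2 purified from Sf9 cells, compounds at 1% final DMSO; stopped with EDTA.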

T1 sequence (P41279 30-398): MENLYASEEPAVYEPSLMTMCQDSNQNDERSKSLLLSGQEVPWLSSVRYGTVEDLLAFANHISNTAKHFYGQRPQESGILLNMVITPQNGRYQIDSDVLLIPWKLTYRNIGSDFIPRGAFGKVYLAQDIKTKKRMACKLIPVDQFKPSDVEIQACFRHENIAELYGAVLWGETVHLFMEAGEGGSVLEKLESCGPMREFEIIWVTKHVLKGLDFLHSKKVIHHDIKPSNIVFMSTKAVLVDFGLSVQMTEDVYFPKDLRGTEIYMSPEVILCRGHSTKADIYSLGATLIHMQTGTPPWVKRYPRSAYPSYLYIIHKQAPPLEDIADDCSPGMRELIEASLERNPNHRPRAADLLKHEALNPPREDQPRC

| IC50 | SMILES |
| --- | --- |
| 910 nM | N#Cc1cnc2ccc(NCc3cnc(S(=O)(=O)c4ccccc4)s3)cc2c1Nc1ccc(F)c(Cl)c1 [Example 245, 4-[(3-chloro-4-fluorophenyl)amino]-6-({[2-(phenylsulfonyl)-1,3-thiazol-5-yl]methyl}amino)quinoline-3-carbonitrile] |
| 2400 nM | N#Cc1cnc2ccc(NCc3cccnc3)cc2c1NC1CCCCCC1 [Example 246, 4-(cycloheptylamino)-6-[(pyridin-3-ylmethyl)amino]quinoline-3-carbonitrile] |
| 2500 nM | N#Cc1cccc(CNc2ccc3ncc(C#N)c(NC4CCCCCC4)c3c2)c1 [Example 247, 6-[(3-Cyanobenzyl)amino]-4-(cycloheptylamino)quinoline-3-carbonitrile] |
| 2500 nM | CS(=O)(=O)c1cccc(CNc2ccc3ncc(C#N)c(NC4CCCCCC4)c3c2)c1 [Example 248, 4-(cycloheptylamino)-6-{[3-(methylsulfonyl)benzyl]amino}quinoline-3-carbonitrile] |
| 380 nM | Cn1ccnc1CNc1ccc2ncc(C#N)c(NC3CCCCCC3)c2c1 [Example 249, 4-(cycloheptylamino)-6-{[(1-methyl-1H-imidazol-2-yl)methyl]amino}quinoline-3-carbonitrile] |
| 6800 nM | N#Cc1cnc2ccc(NCc3ccc(S(N)(=O)=O)cc3)cc2c1NC1CCCCCC1 [Example 250, 4-({[3-cyano-4-(cycloheptylamino)quinolin-6-yl]amino}methyl)benzenesulfonamide] |
| 650 nM | N#Cc1cnc2ccc(NCc3ccn[nH]3)cc2c1NC1CCCCCC1 [Example 251, 4-(cycloheptylamino)-6-[(1H-pyrazol-5-ylmethyl)amino]quinoline-3-carbonitrile] |
| 6100 nM | N#Cc1cnc2ccc(NCCN3CCOCC3)cc2c1NC1CCCCCC1 [Example 252, 4-(cycloheptylamino)-6-[(2-morpholin-4-ylethyl)amino]quinoline-3-carbonitrile] |
| 1400 nM | N#Cc1cnc2ccc(NCc3cccc[n+]3[O-])cc2c1NC1CCCCCC1 [Example 253, 4-(cycloheptylamino)-6-{[(1-oxidopyridin-2-yl)methyl]amino}quinoline-3-carbonitrile] |
| 19900 nM | Cc1nc2ccc(NCc3cnc[nH]3)cc2c(Nc2ccc(F)c(Cl)c2)c1C#N [Example 254, 4-[(3-chloro-4-fluorophenyl)amino]-6-[(1H-imidazol-5-ylmethyl)amino]-2-methylquinoline-3-carbonitrile] |
| > 40000 nM | Cc1nc2ccc(NCc3cccnc3)cc2c(Nc2ccc(F)c(Cl)c2)c1C#N [Example 255, 4-[(3-chloro-4-fluorophenyl)amino]-2-methyl-6-[(pyridin-3-ylmethyl)amino]quinoline-3-carbonitrile] |
| 310 nM | N#Cc1cnc2ccc(NC3CCCC3c3ccccn3)cc2c1Nc1ccc(F)c(Cl)c1 (centres unmarked) [Example 256, 4-[(3-chloro-4-fluorophenyl)amino]-6-[(2-pyridin-2-ylcyclopentyl)amino]quinoline-3-carbonitrile] |
| 370 nM | N#Cc1cnc2c(C(F)(F)F)cc(NCc3cccc[n+]3[O-])cc2c1Nc1ccc(F)c(Cl)c1 [Example 257, 4-[(3-chloro-4-fluorophenyl)amino]-6-{[(1-oxidopyridin-2-yl)methyl]amino}-8-(trifluoromethyl)quinoline-3-carbonitrile] |
| 270 nM | N#Cc1cnc2ccc(NCc3cccc(Br)n3)cc2c1Nc1ccc(F)c(Cl)c1 [Example 258, 6-{[(6-bromopyridin-2-yl)methyl]amino}-4-[(3-chloro-4fluorophenyl)amino]quinoline-3-carbonitrile] |
| > 40000 nM | N#Cc1cnc2c(C(F)(F)F)cc(NCc3cccc(Br)n3)cc2c1Nc1ccc(F)c(Cl)c1 [Example 259, 6-{[(6-Bromopyridin-2-yl)methyl]amino}-4-[(3-chloro-4-fluorophenyl)amino]-8-(trifluoromethyl)quinoline-3-carbonitrile] |
| 830 nM | CC(Nc1ccc2ncc(C#N)c(Nc3ccc(F)c(Cl)c3)c2c1)c1cnccn1 (centres unmarked) [Example 260, 4-[(3-chloro-4-fluorophenyl)amino]-6-[(1-pyrazin-2-ylethyl)amino]quinoline-3-carbonitrile] |
| > 40000 nM | Cn1nc(C(C)(C)C)cc1Nc1c(C#N)cnc2ccc(NCc3cnc[nH]3)cc12 [Example 261, 4-[(3-tert-butyl-1-methyl-1H-pyrazol-5-yl)amino]-6-[(1 H-imidazol-5-ylmethyl)amino]quinoline-3-carbonitrile] |
| 2200 nM | Cc1noc(Nc2c(C#N)cnc3ccc(NCc4cnc[nH]4)cc23)c1C [Example 262, 4-[(3,4-dimethylisoxazol-5-yl)amino]-6-[(1H-imidazol-5-ylmethyl)amino]quinoline-3-carbonitrile] |

| IC50 | SMILES |
| --- | --- |
| 1600 nM | N#Cc1cnc2ccc(NCc3cnc[nH]3)cc2c1Nc1cccnc1 [Example 263, 6-[(1H-imidazol-5-ylmethyl)amino]-4-(pyridin-3-ylamino)quinoline-3-carbonitrile] |
| 2500 nM | N#Cc1cnc2ccc(NCc3cnc[nH]3)cc2c1Nc1ccncc1 [Example 264, 6-[(1H-imidazol-5-ylmethyl)amino]-4-(pyridin-4-ylamino)quinoline-3-carbonitrile] |
| 21 nM | N#Cc1cnc2c(F)cc(NCc3cnc[nH]3)cc2c1Nc1ccc(F)c(Cl)c1 [Example 265, 4-[(3-Chloro-4-fluorophenyl)amino]-8-fluoro-6-[(1H-imidazol-5-ylmethyl)amino]quinoline-3-carbonitrile] |
| 13 nM | N#Cc1cnc2c(F)cc(NCc3cccc[n+]3[O-])cc2c1Nc1ccc(F)c(Cl)c1 [Example 266, 4-[(3-chloro-4-fluorophenyl)amino]-8-fluoro-6-{[(1-oxidopyridin-2-yl)methyl]amino}quinoline-3-carbonitrile] |
| 100 nM | N#Cc1cnc2c(F)cc(NCc3ccn[nH]3)cc2c1Nc1ccc(F)c(Cl)c1 [Example 267, 4-[(3-chloro-4-fluorophenyl)amino]-8-fluoro-6-[(1H-pyrazol-5-ylmethyl)amino]quinoline-3-carbonitrile] |
| 12 nM | Cn1ccnc1CNc1cc(F)c2ncc(C#N)c(Nc3ccc(F)c(Cl)c3)c2c1 [Example 268, 4-[(3-Chloro-4-fluorophenyl)amino]-8-fluoro-6-{[(1-methyl-1H-imidazol-2-yl)methyl]amino}quinoline-3-carbonitrile] |
| 16 nM | Cc1c(CNc2cc(F)c3ncc(C#N)c(Nc4ccc(F)c(Cl)c4)c3c2)ncn1C [Example 269, 4-[(3-chloro-4-fluorophenyl)amino]-6-{[(1,5-dimethyl-1H-imidazol-4-yl)methyl]amino}-8-fluoroquinoline-3-carbonitrile] |
| 100 nM | N#Cc1cnc2c(F)cc(NCc3cc[n+]([O-])cc3)cc2c1Nc1ccc(F)c(Cl)c1 [Example 270, 4-[(3-Chloro-4-fluorophenyl)amino]-8-fluoro-6-{[(1-oxidopyridin-4-yl)methyl]amino}quinoline-3-carbonitrile] |
| 54 nM | N#Cc1cnc2c(Cl)cc(NCc3cc[n+]([O-])cc3)cc2c1Nc1ccc(F)c(Cl)c1 [Example 271, 8-Chloro-4-[(3-chloro-4-fluorophenyl)amino]-6-{[(1-oxidopyridin-4-yl)methyl]amino}quinoline-3-carbonitrile] |
| 47 nM | N#Cc1cnc2c(Cl)cc(NCc3cncnc3)cc2c1Nc1ccc(F)c(Cl)c1 [Example 272, 8-Chloro-4-(3-chloro-4-fluoro-phenylamino)-6-[(pyrimidin-5-ylmethyl)-amino]-quinoline-3-carbonitrile] |
| 83 nM | COc1ccc(CNc2cc(Cl)c3ncc(C#N)c(Nc4ccc(F)c(Cl)c4)c3c2)cc1OCCN1CCOCC1 [Example 273, 8-Chloro-4-[(3-chloro-4-fluorophenyl)amino]-6-{[4-methoxy-3-(2-morpholin-4-ylethoxy)benzyl]amino}quinoline-3-carbonitrile] |
| 35 nM | N#Cc1cnc2c(Cl)cc(NCc3cccc(N4CCOCC4)n3)cc2c1Nc1ccc(F)c(Cl)c1 [Example 274, 8-chloro-4-[(3-chloro-4-fluorophenyl)amino]-6-{[(6-morpholin-4-ylpyridin-2-yl)methyl]amino}quinoline-3-carbonitrile] |
| 370 nM | N#Cc1cnc2c(Cl)cc(NCc3ccc(C(F)(F)F)[n+]([O-])c3)cc2c1Nc1ccc(F)c(Cl)c1 [Example 275, 8-Chloro-4-[(3-chloro-4-fluorophenyl)amino]-6-({[1-oxido-6-(trifluoromethyl)pyridin-3-yl]methyl}amino)quinoline-3-carbonitrile] |
| 4700 nM | COc1c(C)cnc(CNc2cc(Cl)c3ncc(C#N)c(Nc4ccc(F)c(Cl)c4)c3c2)c1C [Example 276, 8-chloro-4-[(3-chloro-4-fluorophenyl)amino]-6-{[(4-methoxy-3,5-dimethylpyridin-2-yl)methyl]amino}quinoline-3-carbonitrile] |
| 66 nM | COc1c(C)c[n+]([O-])c(CNc2cc(Cl)c3ncc(C#N)c(Nc4ccc(F)c(Cl)c4)c3c2)c1C [Example 277, 8-Chloro-4-[(3-chloro-4-fluorophenyl)amino]-6-{[(4-methoxy-3,5-dimethyl-1-oxidopyridin-2-yl)methyl]amino}quinoline-3-carbonitrile] |
| 460 nM | N#Cc1cnc2c(Cl)cc(NCc3ccnc4ccccc34)cc2c1Nc1ccc(F)c(Cl)c1 [Example 278, 8-Chloro-4-[(3-chloro-4-fluorophenyl)amino]-6-[(quinolin-4-ylmethyl)amino]quinoline-3-carbonitrile] |
| 2.6 nM | N#Cc1cnc2c(Cl)cc(NCc3nnn[nH]3)cc2c1Nc1ccc(F)c(Cl)c1 [Example 279, 8-Chloro-4-[(3-chloro-4-fluorophenyl)amino]-6-[(1 H-tetrazol-5-ylmethyl)amino]quinoline-3-carbonitrile] |
